Test results: PubChem BioAssay AID2060624 (Molecular Pharmacology Branch, DTP, NCI, 2025)

System: 217524-143-R1-J4-PDC spheroids with HUVEC/MSC, viability
Assay: Anticancer human tumor 217524-143-R1-J4-PDC patient-derived pancreatic carcinoma cell line growth inhibition [CLK]
Settings: for IC50: curve of first compound; for viability, T/C: stronger effect = lower value
In short: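 Multi-cell-type spheroids combined patient-derived tumor cells with HUVEC endothelial cells and human mesenchymal stem cells. Paired agents were dosed in half-log steps down from about clinical Cmax, or from 10 microM where Cmax was unknown.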

[1] = second compound 0.0316 µM, first compound 0.0316 µM
[2] = second compound 0.0316 µM, first compound 0.1 µM
[3] = second compound 0.0316 µM, first compound 0.316 µM
[4] = second compound 0.0316 µM, first compound 1 µM
[5] = second compound 0.0316 µM, first compound 3.16 µM
[6] = second compound 0.0316 µM, first compound 10 µM
[7] = second compound 0.1 µM, first compound 0.0316 µM
[8] = second compound 0.1 µM, first compound 0.1 µM
[9] = second compound 0.1 µM, first compound 0.316 µM
[10] = second compound 0.1 µM, first compound 1 µM
[11] = second compound 0.1 µM, first compound 3.16 µM
[12] = second compound 0.1 µM, first compound 10 µM
[13] = second compound 0.316 µM, first compound 0.0316 µM
[14] = second compound 0.316 µM, first compound 0.1 µM
[15] = second compound 0.316 µM, first compound 0.316 µM
[16] = second compound 0.316 µM, first compound 1 µM
[17] = second compound 0.316 µM, first compound 3.16 µM
[18] = second compound 0.316 µM, first compound 10 µM
[19] = second compound 1 µM, first compound 0.0316 µM
[20] = second compound 1 µM, first compound 0.1 µM
[21] = second compound 1 µM, first compound 0.316 µM
[22] = second compound 1 µM, first compound 1 µM
[23] = second compound 1 µM, first compound 3.16 µM
[24] = second compound 1 µM, first compound 10 µM
[25] = second compound 3.16 µM, first compound 0.0316 µM
[26] = second compound 3.16 µM, first compound 0.1 µM
[27] = second compound 3.16 µM, first compound 0.316 µM
[28] = second compound 3.16 µM, first compound 1 µM
[29] = second compound 3.16 µM, first compound 3.16 µM
[30] = second compound 3.16 µM, first compound 10 µM
[31] = second compound 10 µM, first compound 0.0316 µM
[32] = second compound 10 µM, first compound 0.1 µM
[33] = second compound 10 µM, first compound 0.316 µM
[34] = second compound 10 µM, first compound 1 µM
[35] = second compound 10 µM, first compound 3.16 µM
[36] = second compound 10 µM, first compound 10 µM
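Note: spheroids exposed to agents for seven days before reading.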
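Throughout, for viability, T/C: 100% = DMSO vehicle control viability.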

Compound `CC(=O)O[C@H]1C(=O)[C@@]2(C)[C@H]([C@H](OC(=O)c3ccccc3)[C@]3(O)C[C@H](OC(=O)[C@H](O)[C@@H](NC(=O)c4ccccc4)c4ccccc4)C(C)=C1C3(C)C)[C@]1(OC(C)=O)CO[C@@H]1C[C@@H]2O` + CN1CCN(c2cc(C(=O)Nc3cc4cc(-c5cnn(C)c5)ccc4cn3)ccn2)CC1 has an IC50 (second compound 0.0316 µM) of under 31.6 nM, an IC50 (second compound 0.1 µM) of under 31.6 nM and an IC50 (second compound 0.316 µM) of under 31.6 nM. For the same compound, the IC50 (second compound 1 µM) was under 31.6 nM, the IC50 (second compound 3.16 µM) was under 31.6 nM and the IC50 (second compound 10 µM) was under 31.6 nM. It also gave a viability, T/C [1] of 14.5%, a viability, T/C [2] of 10.6% and a viability, T/C [3] of 10.8%. The viability, T/C [4] was 11.5%, the viability, T/C [5] was 12.1% and the viability, T/C [6] was 16.4%. The viability, T/C [7] was 11.9%, the viability, T/C [8] was 12.1% and the viability, T/C [9] was 9.82%. It also gave a viability, T/C [10] of 10.7%, a viability, T/C [11] of 10.8% and a viability, T/C [12] of 13.2%. For the same compound, the viability, T/C [13] was 11.1%, the viability, T/C [14] was 11.3% and the viability, T/C [15] was 10.7%. The viability, T/C [16] was 9.41%, the viability, T/C [17] was 11.7% and the viability, T/C [18] was 12.3%. For the same compound, the viability, T/C [19] was 1.11%, the viability, T/C [20] was 1.3% and the viability, T/C [21] was 1.35%. For the same compound, the viability, T/C [22] was 1.2%, the viability, T/C [23] was 2% and the viability, T/C [24] was 1.13%. The viability, T/C [25] was 0.88%, the viability, T/C [26] was 0.73% and the viability, T/C [27] was 0.55%. The viability, T/C [28] was 0.62%, the viability, T/C [29] was 1.1% and the viability, T/C [30] was 0.74%. For the same compound, the viability, T/C [31] was 0.12%, the viability, T/C [32] was 0.17% and the viability, T/C [33] was 0.16%. It also gave a viability, T/C [34] of 0.2%, a viability, T/C [35] of 0.34% and a viability, T/C [36] of 0.24%.

For `COc1cccc2c1C(=O)c1c(O)c3c(c(O)c1C2=O)CC(O)(C(=O)CO)CC3OC1CC(N)C(O)C(C)O1` (centres undefined) + CN1CCN(c2cc(C(=O)Nc3cc4cc(-c5cnn(C)c5)ccc4cn3)ccn2)CC1, the IC50 (second compound 0.0316 µM) was under 31.6 nM, the IC50 (second compound 0.1 µM) was under 31.6 nM and the IC50 (second compound 0.316 µM) was under 31.6 nM. It also gave an IC50 (second compound 1 µM) of under 31.6 nM, an IC50 (second compound 3.16 µM) of under 31.6 nM and an IC50 (second compound 10 µM) of under 31.6 nM. It also gave a viability, T/C [1] of 31.5%, a viability, T/C [2] of 22.6% and a viability, T/C [3] of 18.3%. The viability, T/C [4] was 12.8%, the viability, T/C [5] was 3.21% and the viability, T/C [6] was 1.12%. The viability, T/C [7] was 23.1%, the viability, T/C [8] was 19.4% and the viability, T/C [9] was 13.4%. It also gave a viability, T/C [10] of 11.9%, a viability, T/C [11] of 2.23% and a viability, T/C [12] of 1.21%. The viability, T/C [13] was 15.5%, the viability, T/C [14] was 11.4% and the viability, T/C [15] was 6.94%. The viability, T/C [16] was 3.93%, the viability, T/C [17] was 1.19% and the viability, T/C [18] was 1.44%. It also gave a viability, T/C [19] of 0.79%, a viability, T/C [20] of 1.09% and a viability, T/C [21] of 0.55%. For the same compound, the viability, T/C [22] was 0.99%, the viability, T/C [23] was 1.55% and the viability, T/C [24] was 2.46%. It also gave a viability, T/C [25] of 0.79%, a viability, T/C [26] of 0.89% and a viability, T/C [27] of 0.61%. For the same compound, the viability, T/C [28] was 0.96%, the viability, T/C [29] was 1.17% and the viability, T/C [30] was 0.55%. For the same compound, the viability, T/C [31] was 0.18%, the viability, T/C [32] was 0.12% and the viability, T/C [33] was 0.13%. The viability, T/C [34] was 0.13%, the viability, T/C [35] was 0.11% and the viability, T/C [36] was 0.12%.
